Measured values as given in patent publication US4921797A, “C-terminal alpha-amidating enzyme and process for production and use thereof” (Hisayuki Matsuo, priority 1986, dated 1990).
Square brackets hold non-standard residues; d marks the D form. Ends that are not written are not given here.

Legend:
Format in all cases: biochemical
[1] = biological target: T1, C-terminal α-amidating enzyme AE-I (Xenopus laevis, UniProt P08478); assay: Conversion of substrate peptides to C-terminal α-amidated products by AE-I (reverse-phase HPLC); conditions: same procedure as Example 3; rates Tyr-Phe-Gly>Ac-Tyr-Phe-Gly>D-Tyr-Val-Gly>D-Tyr-Gly-Gly
T1 construct: C-terminal α-amidating enzymes of the present invention can be extracted from the skin of Xenopus laevis; from tissue; host or cells: Xenopus laevis skin
T1 sequence (P08478 37-400 isoform P08478-2 limits assumed): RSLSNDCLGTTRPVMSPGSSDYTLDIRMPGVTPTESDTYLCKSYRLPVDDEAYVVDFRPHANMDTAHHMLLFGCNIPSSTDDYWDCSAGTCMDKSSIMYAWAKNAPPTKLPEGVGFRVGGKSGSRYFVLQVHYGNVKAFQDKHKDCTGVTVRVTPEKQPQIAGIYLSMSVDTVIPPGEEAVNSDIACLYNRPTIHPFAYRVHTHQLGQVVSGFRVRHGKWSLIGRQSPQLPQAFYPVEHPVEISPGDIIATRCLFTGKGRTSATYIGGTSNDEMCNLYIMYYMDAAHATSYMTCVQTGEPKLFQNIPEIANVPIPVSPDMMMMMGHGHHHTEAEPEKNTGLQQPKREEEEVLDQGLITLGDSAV
Procedure: The 0.1 μg of the enzyme preparation AE-I prepared in Example 1 was incubated with 4 nmoles of Tyr-Gly-Gly-Phe-Met-Arg-Arg-Val-Gly as a substrate in 250 μl of a 0.2M Tris-HCl buffer (pH 7.0) containing 2 μM CuSO4, 0.25 mM ascorbic acid, 25 μg catalase, and 0.1% Lubrol, at 37° C. for 24 hours. After the reaction was terminated by the addition of 250 μl of 1% trifluoroacetic acid, the reaction mixture was applied to a TSK ODS-120A column (0.4×25 cm; Toyosoda), and elution was carried out using a linear gradient of 12 to 60% CH3 CN in 0.1% trifluoroacetic acid at a flow rate of 1.5 ml/min. The elute was analyzed for absorbance at 210 nm. FIG. 7A represents an elution pattern for a sample of the reaction mixture taken at 0 time, i.e., before the reaction, and FIG. 7B represents an elution pattern for a sample of the reaction mixture taken 24 hours after the reaction has started. […] In FIG. 7, arrows b and a represent positions at which the peaks of authentic substrate and authentic adrenorphin Tyr-Gly-Gly-Phe-Met-Arg-Arg-Val-NH2 respectively appear under the same condition. Adrenorphin corresponds to a peptide wherein C-terminal glycine has been converted to α-amide. Since the positions 1 and 2 match the positions a and b respectively, it is reasonable to assume that the reaction product corresponding to peak 1 is adrenorphin. This means that the enzyme of the present invention amidated the substrate at its C-terminal. To confirm this conclusion, the fraction 1 in FIG. 7 was hydrolyzed in 6M HCl at 110° C. for 24 hours, and the amino acid composition of the hydrolyzate was analyzed using an amino acid analyzer. Moreover, the presence of the C-terminal amide group in the fraction 1 was analyzed by thermolysin digestion followed by thin layer chromatography. All of the results confirmed that the reaction product is adrenorphin.
The same procedure as described in Example 3 was repeated except that, in place of Tyr-Gly-Gly-Phe-Met-Arg-Arg-Val-Gly(FIG. 8Δ), following substrates were used: […]

[2] = biological target: T1, C-terminal α-amidating enzyme AE-I; assay: Effect of substances on enzyme activity of AE-I
Procedure: C-terminal α-amidating enzyme of the present invention is assayed using synthetic peptide [^125 I]-Ac-Tyr-Phe-Gly as a substitute according to the following procedure. [^125 I]-Ac-Tyr-Phe-Gly (1 pmole, 70,000-150,000 cpm) was incubated with an enzyme preparation, in a final volume of 250 μl containing 0.2M Tris-HCl buffer (pH 7.0), 2 μM CuSo4, 0.25 mM ascorbic acid, 25 μg catalase (Boehringer), 0.1% Lubrol (PX type, Nakarai Chemicals). The reaction mixture was kept at 37° C. for 1 to 4 hours. Then 0.75 ml of 1M Tris-HCl buffer (pH 7.0) and 2 ml of the organic phase of an ethyl acetate/water mixture was added. Two phases were mixed vigorously on a Vortex mixer. After centrifugation at 3000 rpm for 3 min, the organic phase thus separated was transferred to another test tube. The radioactivity in organic and aqueous layers was each measured by a gamma scintillation counter. […] The yield of conversion was calculated from the ratio of the radioactivity in ethyl acetate phase to the total radioactivity. In this assay, one unit is defined as an amount of enzyme which converts 50% of added substrate [^125 I]-Ac-Try-Phe-Gly to [^125 I]-Ac-Tyr-Phe-NH2.

[3] = biological target: T1, C-terminal α-amidating enzyme AE-I; assay: Kinetic constants of AE-I from Lineweaver-Burk plots; conditions: standard conditions
Procedure: C-terminal α-amidating enzyme of the present invention is assayed using synthetic peptide [^125 I]-Ac-Tyr-Phe-Gly as a substitute according to the following procedure. [^125 I]-Ac-Tyr-Phe-Gly (1 pmole, 70,000-150,000 cpm) was incubated with an enzyme preparation, in a final volume of 250 μl containing 0.2M Tris-HCl buffer (pH 7.0), 2 μM CuSo4, 0.25 mM ascorbic acid, 25 μg catalase (Boehringer), 0.1% Lubrol (PX type, Nakarai Chemicals). The reaction mixture was kept at 37° C. for 1 to 4 hours. Then 0.75 ml of 1M Tris-HCl buffer (pH 7.0) and 2 ml of the organic phase of an ethyl acetate/water mixture was added. Two phases were mixed vigorously on a Vortex mixer. After centrifugation at 3000 rpm for 3 min, the organic phase thus separated was transferred to another test tube. The radioactivity in organic and aqueous layers was each measured by a gamma scintillation counter. Under the conditions described above, over 98% of radioactivity of the authentic [^125 I]-Ac-Tyr-Phe-Gly was retained in an aqueous phase and over 98% of radioactivity of the authentic [^125 I]-Ac-Tyr-Phe-NH2 was transferred to an organic phase. The yield of conversion was calculated from the ratio of the radioactivity in ethyl acetate phase to the total radioactivity. In this assay, one unit is defined as an amount of enzyme which converts 50% of added substrate [^125 I]-Ac-Try-Phe-Gly to [^125 I]-Ac-Tyr-Phe-NH2.

## [dY]-Gly-Gly
[1]
  Conversion of substrate by AE-I (FIG. 8): converted to the corresponding des-Gly peptide α-amides

## CCN1C(=O)C=CC1=O [N-ethylmaleimide]
[2]; 5 mM N-ethylmaleimide in presence of 1 mM dithiothreitol
  Effect on enzyme activity inhibited by the thiol compound: restores the enzyme activity

## [dY]-Val-Gly
[1]
  Conversion of substrate by AE-I (FIG. 8): converted to the corresponding des-Gly peptide α-amides

## YGGFMRRVGRPE [BAM-12P]
[1]
  Conversion of substrate by AE-I (FIG. 8): not affected by the enzyme

## Ac-Tyr-Phe-Gly
[1]
  Conversion of substrate by AE-I (FIG. 8): converted to the corresponding des-Gly peptide α-amides
[3]
  Km: 0.35 µM
  Vmax: 1.9 nmol/µg/h

## [Cu+2] [Cu^++]
[2]
  Requirement of Cu++ cation for enzyme activity: essential

## O=C(O)CN(CCN(CC(=O)O)CC(=O)O)CC(=O)O [EDTA]
[2]; 0.1 mM EDTA
  Effect on enzyme activity: inhibited

## O[C@H](CS)[C@H](O)CS (racemic) [dithiothreitol]
[2]; 1 mM dithiothreitol
  Effect on enzyme activity: inhibited

## O=S(=O)([O-])[O-].[Cu+2] [CuSO4]
[2]; additional 1.2 mM CuSO4 in presence of 1 mM dithiothreitol
  Effect on enzyme activity inhibited by the thiol compound: restores the enzyme activity
[2]; additional more than 0.12 mM CuSO4 in presence of 0.1 mM EDTA
  Effect on enzyme activity inhibited by EDTA: restores the enzyme activity

## Tyr-Gly-Gly-Phe-Met-Arg-Arg-Val [desamido-adrenorphin]
[1]
  Conversion of substrate by AE-I (FIG. 8): not affected by the enzyme

## Tyr-Phe-Gly
[1]
  Conversion of substrate by AE-I (FIG. 8): converted to the corresponding des-Gly peptide α-amides
